Results on 32 compounds are retold here after PubChem BioAssay (NCI).

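Method: 48-hour compound exposure of cells in 96-well plates, five concentrations, linear interpolation of endpoints. TGI denotes the concentration required for complete inhibition of growth.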

Test systems include T-47D breast; DMS 273 small cell lung; DMS 114 small cell lung; SNB-78 CNS; LXFL 529 NSCLC; RXF-631 renal; DLD-1 colon; XF 498 CNS; HOP-18 NSCLC.
Holding throughout (test): growth of human tumour cells (NCI), 48 h

Consider `CCOC(=O)CCC(NC(=O)c1ccc(Nc2cnc3ccc(C(F)(F)F)cc3n2)cc1)C(=O)OCC` (centres undefined), for which the TGI in the assay with T-47D breast is over 100 µM.

As to `COc1ccc(CCNC(=O)CCc2ccccc2CO)cc1OC`, in the assay on T-47D breast, the TGI is over 100 µM.

Turning to `CCCCCCCCCCCCn1[nH]c(C)c(C(=S)SCCCCCCCC)c1=O`, the TGI in the assay on DMS 273 small cell lung is over 100 µM; in the assay on DMS 114 small cell lung, over 79.4 µM; with SNB-78 CNS it was over 100 µM; with LXFL 529 NSCLC, over 100 µM; with RXF-631 renal it was over 100 µM; in the assay on DLD-1 colon, over 94.6 µM. Besides, the TGI in the assay on XF 498 CNS and with HOP-18 NSCLC was over 100 µM throughout.

On to `CCc1cccc(C(C)CC)c1NC(=O)C(=O)C(CC(=O)Nc1ccc(Cl)c(Cl)c1)C(=O)OC` (centres undefined), for which the TGI was 55.9 µM in the assay with DMS 273 small cell lung; over 100 µM in the assay with DMS 114 small cell lung; over 100 µM in the assay on SNB-78 CNS; over 100 µM in the assay with LXFL 529 NSCLC; over 100 µM in the assay with DLD-1 colon.

The compound `COc1cc2ccc1OCc1cccc(n1)COc1ccc(cc1OC)C=Nc1ccc(cc1)-c1ccc(cc1)N=C2` came in with a TGI in the assay with T-47D breast of over 100 µM.

On to `O=C1CCCCCC1CC(Sc1ccccc1)Sc1ccccc1` (centres undefined), for which, in the assay with T-47D breast, the TGI is over 100 µM.

Consider `O=[N+]([O-])C(=C(Nc1ccccc1)Nc1ccccc1)/C(Cl)=C(\Cl)Br`, for which the TGI in the assay on T-47D breast was 44.8 µM.

`CC(=O)c1sc(Nc2ccc(Cl)c(Cl)c2)nc1C` showed a TGI in the assay on T-47D breast of over 100 µM.

Turning to `CCSC1=N/C(=C/c2ccccc2O)C(=O)N1`, the TGI with T-47D breast was over 100 µM.

Take `CNC(=O)CNC(=O)C(Cc1ccc(NC(=O)CCCCC(C)=O)cc1)NC(=O)C(CCC(=O)OCc1ccccc1)NC(=O)OC(C)(C)C` (centres undefined): the TGI with T-47D breast is over 100 µM.

For `COc1cc(C)c(C)c(OC(=O)c2c(C)c(C)c(OC)c(C)c2OC)c1C`, the TGI in the assay with DMS 273 small cell lung was 20.6 µM; in the assay on DMS 114 small cell lung it was 15.5 µM; in the assay with SNB-78 CNS, over 100 µM; with LXFL 529 NSCLC it was over 100 µM; in the assay with RXF-631 renal, 69.1 µM; in the assay with DLD-1 colon, over 100 µM. Besides, the TGI in the assay with XF 498 CNS was 40 µM; in the assay on HOP-18 NSCLC it was over 100 µM.

`COc1cc2c(c(OC)c1OC)C(=O)[C@H](Br)[C@H]2NC(=O)NCCCl` registered a TGI with T-47D breast of over 100 µM.

In turn, `Cc1ccc(CC(Cc2ccc(C)cc2C(=O)O)C(=O)O)cc1` (centres undefined) gave a TGI in the assay on T-47D breast of over 100 µM.

As to `CC(C(=O)c1ccc(Cl)cc1)C1OC(=O)C(Cl)=C1Cl` (centres undefined), the TGI in the assay on DMS 114 small cell lung is 76.7 µM; in the assay on LXFL 529 NSCLC, 40.6 µM; in the assay on RXF-631 renal it was over 100 µM; in the assay with DLD-1 colon, 49.9 µM; in the assay with XF 498 CNS, 84.1 µM; with HOP-18 NSCLC, over 100 µM.

`COc1ccc(N=Nc2ccc3oc(=O)c(C(=O)Nc4ccc(Cl)cc4)cc3c2)cc1`: the TGI with T-47D breast is over 10 µM.

For `CC1(C)CCCOc2cccc(c2)OCCCC(C)(C)C1=O`, the TGI in the assay on T-47D breast is over 100 µM.

Turning to `Cc1nc(Nc2ccccc2)sc1C(=O)NNc1ccc([N+](=O)[O-])cc1[N+](=O)[O-]`, the TGI was over 100 µM in the assay with DMS 273 small cell lung; 65.8 µM in the assay on DMS 114 small cell lung; over 100 µM with SNB-78 CNS; over 100 µM in the assay on LXFL 529 NSCLC; over 100 µM in the assay on DLD-1 colon; 55.3 µM in the assay on XF 498 CNS. In the assay on HOP-18 NSCLC, this compound showed a TGI of over 100 µM.

Regarding `O=C(Cn1c2ccc(Br)cc2c2nc3ccccc3nc21)N/N=C/c1ccccc1`, in the assay on T-47D breast, the TGI is over 100 µM.

Regarding `CC(=O)N/N=C1/CC[C@@]2(C)C(=CC[C@H]3C4CCC(C(C)CCCC(C)C)[C@@]4(C)CCC32)C1(C)C` (some centres undefined), the TGI in the assay with T-47D breast was over 100 µM.

Take `CCC1(N=[N+]=[N-])C(=O)c2ccccc2N(c2ccccc2)C1=O` (centres undefined): the TGI with DMS 273 small cell lung, with DMS 114 small cell lung, in the assay on SNB-78 CNS, in the assay on LXFL 529 NSCLC, in the assay with DLD-1 colon and in the assay with XF 498 CNS was over 100 µM throughout. In addition, in the assay on HOP-18 NSCLC, the TGI is over 100 µM.

With `CC(C)(CC#N)c1cc(CC(C)(C)c2cc(CC(C)(C)c3cc(C(C)(C)C4(C)OCCO4)no3)no2)no1`, the TGI with T-47D breast was over 100 µM.

Regarding `CCOC(=O)C1=COC(C)(c2ccccc2)CC1=O` (centres undefined), the TGI in the assay on T-47D breast was over 100 µM.

`Cc1cc(=O)oc2c3c(ccc12)OC(c1ccc(Br)cc1)CC3=O` (centres undefined) yielded a TGI in the assay on T-47D breast of 1.18 µM.

Consider `Cc1cccc(C)c1NC(=O)CCC(=O)NC(N)=S`, for which the TGI in the assay on LXFL 529 NSCLC, in the assay on DLD-1 colon and in the assay on HOP-18 NSCLC was over 100 µM each time.

`C#C[C@]1(O)CC[C@H]2[C@@H]3CCC4=C/C(=N\OCCN(CC)CC)CC[C@]4(C)[C@H]3CC[C@@]21C` returned a TGI in the assay with T-47D breast of 40.9 µM.

With `Brc1ccc2c(c1)C1C(CO2)C(c2ccccc2)=NN1c1ccccc1` (centres undefined), the TGI in the assay with DMS 273 small cell lung, in the assay with DMS 114 small cell lung, in the assay on SNB-78 CNS, in the assay on LXFL 529 NSCLC, with DLD-1 colon and in the assay on XF 498 CNS was over 100 µM throughout. Besides, in the assay with HOP-18 NSCLC, the TGI is over 100 µM.

`O=C1CCCCC(=O)Nc2ccccc2N1` showed a TGI in the assay on T-47D breast of over 100 µM.

Consider `CC(=O)C(=[N+]=[N-])C(=O)OCCOC(=O)C(=[N+]=[N-])C(C)=O`, for which the TGI with T-47D breast is over 1 µM.

With `CN(C)CC1(Cc2ccccc2)CCC(Cc2ccccc2)C1=O` (centres undefined), the TGI worked out at 29 µM in the assay with DMS 273 small cell lung; 36.4 µM in the assay on DMS 114 small cell lung; 43.4 µM in the assay with SNB-78 CNS; 7.32 µM with LXFL 529 NSCLC; 8.26 µM with DLD-1 colon; 36.3 µM in the assay on XF 498 CNS. Moreover, the results for the TGI in the assay on HOP-18 NSCLC and in the assay on T-47D breast were 21.3 µM and 51.5 µM, respectively.

As to `CCCC(=O)OCC1OC(n2cc(F)c(=O)[nH]c2=O)C(F)C1OC(=O)CCC` (centres undefined), the TGI in the assay on T-47D breast is over 100 µM.

Turning to `COC(=O)c1ccccc1NC(=O)C(=O)CC(=O)CC(c1ccccc1)c1c(O)c2ccccc2oc1=O` (centres undefined), the TGI in the assay on DMS 114 small cell lung, with RXF-631 renal and in the assay with DLD-1 colon was over 100 µM each time.

With `CC1(C)CCC[C@@]2(C)C1C(=O)[C@@H]1O[C@]1(C)[C@@H]2CO` (some centres undefined), the TGI with T-47D breast is over 100 µM.
